Entries after “also recorded” stand apart in the source; their conditions may differ.
Tests used:
[1] = doses of 1000 mg/kg; cited from earlier work
KB cells = assay: Intracellular uptake by fluorescence microscopy; type: cell-based; conditions: 1 mM (1000 μM) free EDTA with 5 μM PS
Procedure: Fluorescence microscopy method was firstly used to track particles' intracellular uptake on KB cells that cultured in RPMI-1640 media with 10% FBS. Briefly, 5×10^4 cells/well were seeded in eight-well chamber slides 24 h prior to incubation. Cells were incubated with NPS and PS at porphyrin concentration of 1 μM for 4 h at 37° C., rinsed with PBS for 3 times and then re-culture in fresh media. Olympus FV1000 laser fluorescence scanning microscopy (Olympus, Tokyo, Japan) was conducted to monitor the porphyrin fluorescence change of the cells with time (immediately and at 3 h and 18 h after removing the incubation medium). The fluorescence microscopy method was also used to examine eNPS uptake in KB epithelium cells versus normal fibroblast cells (NFB)

Molecule	Acute toxicity [1]	Effect of co-incubated free EDTA on PS uptake (KB cells)
pyropheophorbide-lipid [porphyrin-lipid]	minimal acute toxicities	–
O=C(O)CN(CCN(CC(=O)O)CC(=O)O)CC(=O)O [free EDTA, Ethylenediaminetetraacetic acid]	–	negligible enhancement; also recorded: negligible effect

Reference: US20240307308A1, “PORPHYRIN NANOVESICLE WITH FATTY ACID CONJUGATE” (priority 2021, published 2024)
